{"source": "patent US12290521B2", "about": "“Methods and materials for identifying and treating BET inhibitor-resistant cancers” (Mayo Foundation for Medical Education and Research, priority 2018, dated 2025)", "format_in_all_cases": "cell-based, human", "key": {"[1]": {"system": "prostate cancer patient-derived organoid lines", "assay": "Organoid cell viability assay (2D and 3D)", "details": "SPOP W131R-expressing organoid compared to two SPOP WT counterparts; 2D and 3D growth", "experimental": "Organoid cells were obtained from Dr. Yu Chen from MSKCC and cultured according to the methodology as described elsewhere (Drost et al., Nat. Protoc., 11:347-358 (2016)). In brief, organoid cells were imbedded in 40 μL Matrigel each drop and cultured in FBS free DMEM/F12 medium supplied with several growth factors. Cell viability assays were conducted by plating 2,000 organoid cells per well of a collagen coated 96-well cell culture plate in […] media with vehicle (DMSO) control or JQ1 (0.05˜1 μM). Viable cells were counted by using a CellTiter-Glo (Promega) Luminescent Cell Viability Assay Kit."}, "[2]": {"system": "C4-2 cells", "assay": "Western blot and RT-qPCR of protein and mRNA expression in C4-2 cells", "experimental": "Cell lysates or immunoprecipitates were subjected to SDS-PAGE, and proteins were transferred to nitrocellulose membranes (GE Healthcare Sciences). The membranes were blocked in Tris-buffered saline (TBS, pH 7.4) containing 5% non-fat milk and 0.1% Tween-20, washed twice in TBS containing 0.1% Tween-20, and incubated with primary antibody overnight at 4° C., followed by secondary antibody for 1 hour at room temperature. The proteins of interest were visualized using ECL chemiluminescence system (Santa Cruz Biotechnology). Densitometry analysis of protein bands was analyzed on the Gel-Pro Analyzer software.\nTotal RNA was isolated from transiently transfected cells using the Trizol reagent (Thermo Fisher Scientific), and cDNA was reverse-transcribed using the Superscript RT kit (TOYOBO, Japan) according to the manufacturer's instructions. PCR amplification was performed using the SYBR Green PCR master mix Kit (TOYOBO, Japan). All quantization was normalized to the level of endogenous control GAPDH. The primer sequences for the SYBR green qPCR used were as follows: BRD2-F: 5′-[…]-3′ (SEQ ID NO:10); BRD2-R: 5′-[…]-3′ (SEQ ID NO:11); BRD3-F: 5′-[…]-3′ (SEQ ID NO:12); BRD3-R: 5′-[…]-[…]-3′ (SEQ ID NO:13); BRD4-F: 5′-[…]-GAG-3′ (SEQ ID NO:14); BRD4-F: 5′-[…]-3′ (SEQ ID NO: 15); RAC1-F: 5′-[…]-3′ (SEQ ID NO:16); RAC1-R: 5′-[…]-3′ (SEQ ID NO:17); FDFT1-F: 5′-ACTAT-[…]-3′ (SEQ ID NO:18); FDFT1-R: 5′-[…]-[…]-3′ (SEQ ID NO:19); DHCR24-F: 5′-[…]-GAGC-3′ (SEQ ID NO:20); DHCR24-R: 5′-[…]-3′(SEQ ID NO:21); DHCR7-F: 5′-[…]-3′ (SEQ ID NO: 22); DHCR7-R: 5′-[…]-3′ (SEQ ID NO:23); MVD-F: 5′-[…]-3′ (SEQ ID NO:24); MVD-R: 5′-CACAC-[…]-3′ (SEQ ID NO:25); PSA-F: 5′-[…]-[…]-3′ (SEQ ID NO:26); PSA-R: 5′-[…]-3′ (SEQ ID NO:27); TMPRSS2-F: 5′-[…]-3′ (SEQ ID NO: 28); TMPRSS2-R: 5′-[…]-3′ (SEQ ID NO:29); MYC-F: 5′-[…]-3′ (SEQ ID NO:30); MYC-R: 5′-CTTGT-[…]-3′ (SEQ ID NO:31); AR-F: 5′-[…]-TCACC-3′ (SEQ ID NO:32); AR-R: 5′-[…]-3′ (SEQ ID NO: 33); GAPDH-F: 5′-[…]-3′ (SEQ ID NO:34); and GAPDH-R: 5′-[…]-3′ (SEQ ID NO:35).\nCells were harvested and lysed by IP buffer (50 mM Tris-HCl, pH 7.4, 150 mM NaCl, 1% Triton X-100, 1% sodium deoxycholate and 1% protease inhibitor cocktails) on ice for more than 15 minutes. Cell lysate was centrifuged for 15 minutes at 13,000 rpm at 4° C., and the supernatant was quantified by BCA protein quantification assay. Equal amounts of protein sample were added into 4× sample buffer and boiled for 5 minutes. The sample was subjected to SDS-PAGE analysis and transferred to nitrocellulose membrane. The membrane was blocked by 5% milk for 1 hour at room temperature and incubated with primary antibody at 4° C. overnight. The next day, the membrane was washed three times with 1×TBST and incubated with horseradish peroxidase-conjugated secondary antibodies for 1 hour at room temperature. The protein bands were visualized by SuperSignal West Pico Stable Peroxide Solution (Thermo Fisher Scientific).\nTotal RNA was isolated using TRIzol reagent (Thermo Fisher Scientific). The NanoDrop 2000 spectrophotometer (Thermo Fisher Scientific) was used to assess RNA yield and quality. RNA was reversely transcribed using Superscript II reverse transcriptase (Thermo Fisher Scientific) following manufacturer's instructions. Quantitative real-time PCR was performed by mixing cDNA, gene-specific primers and IQ SYRB Green Supermix and detected by iCycler QTX detection system (Bio-Rad). The 2-ΔCt method was used to quantitate fold changes by normalizing to GAPDH."}, "[3]": {"system": "DU145 cells", "assay": "Cell proliferation (MTS assay)", "details": "JQ1 2 μM", "experimental": "Cell proliferation was measured by using the MTS assay (Promega). Prostate cancer cells (2,000 per well) were seeded in 96-well plates with 100 μL of culture medium. Each well was added with 20 μL of CellTiter 96R AQueous One Solution Reagent (Promega) and absorbance was measured in a microplate reader at 490 nm.\nThe cells then were treated with vehicle (DMSO), a CBP/p300 inhibitor (CPI-637; iCBP; 20 μM), or a BET inhibitor (JQ1; 2 μM) alone or a combination of CPI-637 and JQ1. After 72 hours, cells were subjected to measurement of cell growth by an MTS assay. In each cell type (EV and F133V), the OD value in each group was normalized by the value in the control (vehicle) group."}, "[4]": {"details": "control and SPOP-F133V C4-2 cells, JQ1 1 μM, 24 hours"}}, "note": "“Also recorded” adds a separate entry of the source.", "data": [{"smiles": "Cc1sc2c(c1C)C(c1ccc(Cl)cc1)=N[C@@H](CC(=O)OC(C)(C)C)c1nnc(C)n1-2", "note": "[JQ1]", "values": [{"measurement": "sensitivity of organoid to JQ1", "setting": "[1]", "result": "resistant"}, {"measurement": "ERG expression", "setting": "[2]; C4-2 and 22Rv1 cells (JQ1 1 μM, 24 hours) and C4-2 tumors", "result": "largely decreased"}, {"measurement": "BRD4 protein level", "setting": "[2]; C4-2 cells, JQ1", "result": "increased"}, {"measurement": "DUB3 mRNA and protein levels", "setting": "[2]; C4-2 cells, JQ1", "result": "opposite; also recorded: upregulation"}, {"measurement": "NCOR2 protein and mRNA expression", "setting": "[2]; C4-2 cells, dose- and time-dependent", "result": "decreased"}, {"measurement": "expression of cholesterol synthesis genes (FDFT1, DHCR24, DHCR7, MVD) and BRD4 binding at their promoters", "setting": "[2]; SPOP-F133V C4-2 cells, JQ1 1 μM, 24 hours", "result": "not pronounced"}, {"measurement": "expression of cholesterol synthesis genes (FDFT1, DHCR24, DHCR7, MVD) and BRD4 binding at their promoters", "setting": "[2]; control C4-2 cells, JQ1 1 μM, 24 hours", "result": "largely inhibited"}, {"measurement": "AR protein level", "setting": "[2]; [4]", "result": "largely decreased"}, {"measurement": "AR transcriptional activity", "setting": "[2]; [4]", "result": "largely decreased"}, {"measurement": "MYC protein expression", "setting": "[2]; [4]", "result": "markedly decreased"}, {"measurement": "expression of receptor tyrosine kinases HER3, IGF1R and INSR", "setting": "[2]; [4]", "result": "no effect"}, {"measurement": "sensitivity of cell growth to JQ1", "setting": "[3]; DUB3-knockdown DU145 cells versus control knockdown cells", "result": "much more sensitive"}, {"measurement": "resistance of cell growth by DUB3 overexpression", "setting": "[3]; DUB3-overexpressing DU145 cells", "result": "conferred resistance"}, {"measurement": "sensitivity of cell growth to JQ1", "setting": "[3]; SPOP F133V-expressing DU145 cells", "result": "JQ1 resistance"}, {"measurement": "sensitivity of cell growth to JQ1 after DUB3 knockdown", "setting": "[3]; SPOP-F133V cells with DUB3 shRNA", "result": "sensitized"}]}]}
